Read-outs that look alike come from different tables or passages of the source.
Experiments:
[1] = molecular target: T1, full-length NS3/NS4A-2 (HCV NS3 protease) (Hepatitis C virus genotype 1a, UniProt P27958); experiment: NS3-NS4 protease assay / NS3 inhibition assay (RETS1 substrate, fluorescence kinetic read); format: biochemical
T1 construct: Recombinant E. coli or Baculovirus full-length NS3 was diluted to 3.33 μM with assay buffer; made in house; host or cells: E. coli or baculovirus (BV) expression system
Outline: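 Full-length NS3 from E. coli (2 nM in assay) or baculovirus (3 nM) was precomplexed with excess NS4A-2 peptide, then preincubated 10 min at room temperature with serially diluted compounds starting at 50 microM. Reaction was started with RETS1 substrate at 8 μM before addition and read kinetically for 30 min (ex 335/em 495 nm). Four-parameter IC50s were converted to Ki by Cheng-Prusoff using Km 2.03 μM (E. coli) or 1.74 μM (BV).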

[2] = test system: HCV sub-genomic replicon in GS4.3 cells (HuH-7 hepatoma cells); experiment: Quantitation by ELISA of Neomycin phosphotransferase II (NPTII) in the HCV sub-genomic replicon, GS4.3; format: cell-based, hepatitis C virus; conditions: Hepatitis C virus, Huh-7; GS4.3 cells, 72 h incubation, NPTII ELISA; read-out: Replicon EC50
Outline: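 HuH-7 GS4.3 cells carrying HCV sub-genomic replicon 1377/NS3-3′, treated 72 h at 37 °C without G418 with 3-fold dilutions from 10 μM to 56 pM (1% DMSO). NPTII in cell lysates measured by direct ELISA with TMB readout at 450 nm. EC50 from 4-parameter fit of percent DMSO-control signal.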

[3] = recombinant E. coli or Baculovirus full-length NS3 with NS4A-2, read-out: NS3-NS4 IC50

T1 sequence (P27958 1027-1657): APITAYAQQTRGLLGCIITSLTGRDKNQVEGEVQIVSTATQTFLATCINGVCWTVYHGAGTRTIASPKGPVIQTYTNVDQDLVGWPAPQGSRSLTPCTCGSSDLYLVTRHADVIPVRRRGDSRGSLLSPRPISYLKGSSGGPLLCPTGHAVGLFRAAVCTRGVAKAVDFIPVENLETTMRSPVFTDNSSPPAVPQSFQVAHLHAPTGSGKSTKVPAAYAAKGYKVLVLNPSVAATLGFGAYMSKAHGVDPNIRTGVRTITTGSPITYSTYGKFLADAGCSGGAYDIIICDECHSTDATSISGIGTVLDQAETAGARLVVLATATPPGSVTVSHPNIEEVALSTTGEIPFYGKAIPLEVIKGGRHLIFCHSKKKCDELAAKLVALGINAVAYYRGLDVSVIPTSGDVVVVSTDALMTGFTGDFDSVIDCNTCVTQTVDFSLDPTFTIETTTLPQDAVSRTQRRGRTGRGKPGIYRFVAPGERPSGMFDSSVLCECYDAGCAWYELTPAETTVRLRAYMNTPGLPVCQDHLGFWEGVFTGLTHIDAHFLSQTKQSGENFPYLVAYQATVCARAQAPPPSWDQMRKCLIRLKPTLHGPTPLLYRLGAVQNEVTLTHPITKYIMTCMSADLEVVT

| SMILES | IC50 [1, 3] [nM] | EC50 [2] [nM] | IC50 [1] [nM] |
| --- | --- | --- | --- |
| O=C(N[C@H]1CCCCC/C=C\[C@@H]2C[C@@]2(C(=O)NS(=O)(=O)NC2CC2)NC(=O)[C@@H]2C[C@@H](OC(=O)N3CCc4ccccc4C3)CN2C1=O)OC1CCCC1 [Compound 231] | < 100 | < 100 | – |
| O=C1N[C@]2(C(=O)NS(=O)(=O)C3CC3)C[C@H]2/C=C\CCCCC[C@H](NCC2CCCO2)C(=O)N2C[C@H](OC(=O)N3Cc4cccc(F)c4C3)C[C@@H]12 (some centres unmarked) [Compound 916] | < 100 | < 1000 | – |
| CC(C)(C)OC(=O)N[C@H]1CCCCC/C=C\[C@@H]2C[C@@]2(C(=O)NS(=O)(=O)C2CC2)NC(=O)[C@@H]2C[C@@H](OC(=O)Nc3nc4ccccc4s3)CN2C1=O [Compound 140] | < 100 | < 1000 | – |
| CC(C)(CO)C(=O)N[C@H]1CCCCC/C=C\[C@@H]2C[C@@]2(C(=O)NS(=O)(=O)C2CC2)NC(=O)[C@@H]2C[C@@H](OC(=O)N3Cc4cccc(F)c4C3)CN2C1=O [Compound 254] | < 100 | < 1000 | – |
| CC(C)(C)OC(=O)N[C@H]1CCCCC/C=C\[C@@H]2C[C@@]2(C(=O)NS(=O)(=O)C2CC2)NC(=O)[C@@H]2C[C@@H](OC(=O)N3CCc4cccc(Cl)c4C3)CN2C1=O [Compound 255] | < 100 | < 100 | – |
| CC(C)C(O)C(=O)N[C@H]1CCCCC/C=C\[C@@H]2C[C@@]2(C(=O)NS(=O)(=O)C2CC2)NC(=O)[C@@H]2C[C@@H](OC(=O)N3Cc4cccc(F)c4C3)CN2C1=O (some centres unmarked) [Compound 250] | < 100 | < 1000 | – |
| CC(=O)N[C@H](C(=O)N[C@H]1CCCCC/C=C\[C@@H]2C[C@@]2(C(=O)NS(=O)(=O)C2CC2)NC(=O)[C@@H]2C[C@@H](OC(=O)N3Cc4cccc(Cl)c4C3)CN2C1=O)C1CCCCC1 [Compound 262] | < 100 | < 1000 | – |
| CC(C)(C)OC(=O)N[C@H]1CCCCCC[C@@H]2C[C@@]2(C(=O)NS(=O)(=O)C2CC2)NC(=O)[C@@H]2C[C@@H](OC(=O)N3Cc4cccc(F)c4C3)CN2C1=O [Compound 269] | < 100 | < 100 | – |
| CC(C)(C)OC(=O)N[C@H]1CCC(F)(F)CC/C=C\[C@@H]2C[C@@]2(C(=O)O)NC(=O)[C@@H]2C[C@@H](OC(=O)N3CCc4ccccc4C3)CN2C1=O [Compound 1013] | < 100 | < 100 | – |
| CN(C)S(=O)(=O)NC(=O)[C@@]12C[C@H]1/C=C\CCC(F)(F)CC[C@H](NC(=O)OC(C)(C)C)C(=O)N1C[C@H](OC(=O)N3Cc4cccc(F)c4C3)C[C@H]1C(=O)N2 [Compound 1015] | < 100 | < 100 | – |
| O=C(N[C@H]1CCCCC/C=C\[C@@H]2C[C@@]2(C(=O)NS(=O)(=O)C2CC2)NC(=O)[C@@H]2CCCN2C1=O)C1CC1 [Compound 317] | < 1000 | > 10000 | – |
| CN(Cc1ccccc1)S(=O)(=O)NC(=O)[C@@]12C[C@H]1/C=C\CCCCC[C@H](NC(=O)OC(C)(C)C)C(=O)N1C[C@H](OC(=O)N3Cc4cccc(F)c4C3)C[C@H]1C(=O)N2 [Compound 210] | < 100 | < 100 | – |
| O=C(N[C@H]1CCCCC/C=C\[C@@H]2C[C@@]2(C(=O)NS(=O)(=O)N2CCC(F)(F)C2)NC(=O)C2C[C@@H](OC(=O)N3Cc4ccccc4C3)CN2C1=O)OC1CCCC1 (some centres unmarked) [Compound 227] | < 100 | < 100 | – |
| CC(C)(C)OC(=O)N[C@H]1CCCCC/C=C\[C@@H]2C[C@@]2(C(=O)O)NC(=O)[C@@H]2C[C@@H](OC(=O)N3Cc4cccc(Cl)c4C3)CN2C1=O [Compound 113] | < 100 | < 1000 | – |
| CC(C)(C)OC(=O)N[C@H]1CCCCC/C=C\[C@@H]2C[C@@]2(C(=O)NCC(F)F)NC(=O)[C@@H]2C[C@@H](OC(=O)N3Cc4cccc(F)c4C3)CN2C1=O [Compound 612] | < 1000 | < 1000 | – |
| CC(C)(C)OC(=O)N[C@H]1CCCCC/C=C\[C@@H]2C[C@@]2(C(=O)NS(=O)(=O)C2(Cc3ccccc3)CC2)NC(=O)[C@@H]2C[C@@H](OC(=O)N3Cc4ccccc4C3)CN2C1=O [Compound 101] | < 100 | < 100 | – |
| O=C(N[C@H]1CCCCC/C=C\[C@@H]2C[C@@]2(C(=O)O)NC(=O)[C@@H]2C[C@@H](OC(=O)N3Cc4ccncc4C3)CN2C1=O)OC1CCCC1 [Compound 146] | < 100 | > 10000 | – |
| CC(C)(C)OC(=O)N[C@H]1CCCCC/C=C\[C@@H]2C[C@@]2(C(=O)NS(=O)(=O)C2CC2)NC(=O)[C@@H]2C[C@@H](OC(=O)N3CCc4c(Cl)ccc(F)c4C3)CN2C1=O [Compound 260] | < 100 | < 100 | – |
| CN(C(=O)[C@@]12C[C@H]1/C=C\CCCCC[C@H](NC(=O)OC(C)(C)C)C(=O)N1C[C@H](OC(=O)N3Cc4cccc(F)c4C3)C[C@H]1C(=O)N2)S(=O)(=O)C1CC1 [Compound 264] | < 10000 | > 10000 | – |

| SMILES | IC50 [1, 3] [nM] | EC50 [2] [nM] | IC50 [1] [nM] |
| --- | --- | --- | --- |
| CC(C)(C)OC(=O)N[C@H]1CCOCC/C=C\[C@@H]2C[C@@]2(C(=O)O)NC(=O)[C@@H]2C[C@@H](OC(=O)N3Cc4cccc(F)c4C3)CN2C1=O [Compound 1026] | < 100 | < 10000 | – |
| CC(C)(C)OC(=O)N[C@H]1CCCCC/C=C\[C@@H]2C[C@@]2(C(=O)NS(=O)(=O)N2CCC(F)(F)C2)NC(=O)[C@@H]2C[C@@H](OC(=O)N3Cc4cccc(Cl)c4C3)CN2C1=O [Compound 211] | < 100 | < 100 | – |
| N#CNC(=O)[C@@]12C[C@H]1/C=C\CCCCC[C@H](NC(=O)C1CC1)C(=O)N1C[C@H](OC(=O)N3Cc4cccc(F)c4C3)CC1C(=O)N2 (some centres unmarked) [Compound 638] | < 1000 | > 10000 | – |
| CC(C)(C)NC(=O)N[C@H]1CCCCC/C=C\[C@@H]2C[C@@]2(C(=O)O)NC(=O)C2C[C@@H](OC(=O)N3Cc4cccc(Cl)c4C3)CN2C1=O (some centres unmarked) [Compound 177] | < 100 | < 10000 | – |
| O=C1N[C@]2(C(=O)NS(=O)(=O)C3CC3)C[C@H]2/C=C\CCCCC[C@H](NCc2cccc(C(F)(F)F)c2)C(=O)N2C[C@H](OC(=O)N3Cc4cccc(F)c4C3)C[C@@H]12 [Compound 901, (1S,4R,6S,14S,18R)-14-(3-(trifluoromethyl)benzylamino)-4-(cyclopropanesulfonyl)aminocarbonyl-18-(4-fluoro-1,3-dihydro-isoindole-2-carbonyloxyl)-2,15-dioxo-3,16-diaza-tricyclo[14.3.0.0^4,6]nonadec-7-ene] | < 100 | < 100 | – |
| CN(C)CCOc1ccc2c(c1)CN(C(=O)O[C@@H]1C[C@H]3C(=O)N[C@]4(C(=O)NS(=O)(=O)C5CC5)C[C@H]4/C=C\CCCCC[C@H](NC(=O)OC4CCCC4)C(=O)N3C1)C2 [Compound 134] | < 100 | < 100 | – |
| O=C(N[C@H]1CCCCC/C=C\[C@@H]2C[C@@]2(C(=O)NS(=O)(=O)C2CCCCC2)NC(=O)[C@@H]2C[C@@H](OC(=O)N3CCc4ccccc4C3)CN2C1=O)OC1CCCC1 [Compound 189] | < 100 | < 1000 | – |
| CNC(=O)[C@@H](NC(=O)[C@@]12C[C@H]1/C=C\CCCCC[C@H](NC(=O)OC(C)(C)C)C(=O)N1C[C@H](OC(=O)N3Cc4cccc(F)c4C3)C[C@H]1C(=O)N2)c1ccc(F)cc1 [Compound 631] | < 100 | < 1000 | – |
| CCOC(=O)[C@@]12C[C@H]1/C=C\CCCCC[C@H](N)C(=O)N1C[C@H](OC(=O)N3Cc4ccccc4C3)C[C@H]1C(=O)N2 [Compound 121] | < 1000 | < 1000 | – |
| CC(C)(C)OC(=O)N[C@H]1CCCCC/C=C\[C@@H]2C[C@@]2(C(=O)NS(=O)(=O)C2CC2)NC(=O)[C@@H]2C[C@@H](OC(=O)N3Cc4ccc(F)cc4C3)CN2C1=O [Compound 111] | < 100 | < 100 | – |
| N[C@H]1CCCCC/C=C\[C@@H]2C[C@@]2(C(=O)NS(=O)(=O)c2ccc(Cl)s2)NC(=O)[C@@H]2C[C@@H](OC(=O)N3Cc4cccc(Cl)c4C3)CN2C1=O [Compound 168] | – | < 10000 | < 100 |
| C[C@@H](NC(=O)[C@@]12C[C@H]1/C=C\CCCCC[C@H](NC(=O)OC(C)(C)C)C(=O)N1C[C@H](OC(=O)N3Cc4cccc(F)c4C3)C[C@H]1C(=O)N2)c1ccc(F)cn1 [Compound 629] | < 1000 | < 10000 | – |
| CC(C)(C)OC(=O)N[C@H]1CCCCC/C=C\[C@@H]2C[C@@]2(C(=O)O)NC(=O)[C@@H]2C[C@@H](OC(=O)Nc3nc4ccccc4s3)CN2C1=O [Compound 139] | < 1000 | > 10000 | – |
| CCCNC(=O)[C@@]12C[C@H]1/C=C\CCCCC[C@H](N)C(=O)N1C[C@H](OC(=O)N3Cc4cccc(F)c4C3)C[C@H]1C(=O)N2 [Compound 621] | > 10000 | > 10000 | – |
| O=C(N[C@H]1CCCCC/C=C\[C@@H]2C[C@@]2(C(=O)O)NC(=O)[C@@H]2C[C@@H](OC(=O)N3Cc4ccccc4C3)CN2C1=O)C1CC1 [Compound 123] | < 100 | < 10000 | – |
| O=C1N[C@]2(C(=O)NS(=O)(=O)C3CC3)C[C@H]2/C=C\CCCCC[C@H](NC(=S)N2CCCC2)C(=O)N2C[C@H](OC(=O)N3Cc4cccc(F)c4C3)C[C@@H]12 [Compound 244] | < 100 | < 100 | – |
| CN(C)S(=O)(=O)NC(=O)[C@@]12C[C@H]1/C=C\CCCCC[C@H](NC(=O)OC1CCCC1)C(=O)N1C[C@H](OC(=O)N3Cc4cccc(F)c4C3)C[C@H]1C(=O)N2 [Compound 215] | < 100 | < 100 | – |
| Cc1ccc(CN[C@H]2CCCCC/C=C\[C@@H]3C[C@@]3(C(=O)NC#N)NC(=O)C3C[C@@H](OC(=O)N4Cc5cccc(F)c5C4)CN3C2=O)o1 (some centres unmarked) [Compound 643] | < 1000 | > 10000 | – |
